# From patent publication US7781565B2 (priority 2006, dated 2010)
# Test system: NCI-60 cell lines
# Assay type: cell-based, human
Substance,Cell Line with which the peptide (and its tripeptide motif) is associated,Cell Line (NCI-60 cell line the peptide is associated with),Cell Line (NCI-60 cell line the peptide and its motif are associated with),Cell Line the peptide is associated with (peptide recovered from phage library selection on this NCI-60 cell line)
GGVAGVS,A549-Lung,–,–,–
GGVLGSD,–,LOX-IMVI Melanoma,–,–
GGVLYLE,H226-Lung,–,–,–
GGVRIAA,–,HCT-116 Colon,–,–
GGVRLGG,–,–,PC3 Prostate,–
GGVSPVD,A549-Lung,–,–,–
GGVSRMR,–,–,–,CAIK-1 Renal
GGWARAV,–,SNB-75 CNS,–,–
GGYWLRS,–,–,M14 Melanoma,–
GHGSGSR,–,–,–,ACHN Renal
GHSERLS,–,–,–,T-47D Breast
GHYRASV,–,HT-29 Colon,–,–
GKALRGV,Hop-62-Lung,–,–,–
GKGMGLG,–,–,OVCAR-5 Ovarian,–
GLEGSGG,H23-Lung,–,–,–
GLGALRW,–,–,–,NCI/ADR-RES Breast
GLGAVGW,–,HT-29 Colon,–,–
GLGGGGS,–,SF-268 CNS,–,–
GLGGWVA,H226-Lung,–,–,–
GLGIMGP,K-562-Leukemia,–,–,–
GLGLRLG,–,–,OVCAR-8 Ovarian,–
GLGNRPT,RPMI-8226-Leukemia,–,–,–
GLGRSVN,–,–,–,T-47D Breast

Substance,Cell Line with which the peptide (and its tripeptide motif) is associated,Cell Line (NCI-60 cell line the peptide is associated with),Cell Line (NCI-60 cell line the peptide and its motif are associated with),Cell Line the peptide is associated with (peptide recovered from phage library selection on this NCI-60 cell line)
GLGSCAP,–,–,–,RXF393 Renal
GLGVSGV,Hop-62-Lung,–,–,–
GLLSAGI,–,SF-268 CNS,–,–
GLLSGGT,–,–,IGROV1 Ovarian,–
GLLSLXL,CCRF-CEM Leukemia,–,–,–
GLLSSFS,–,–,M14 Melanoma,–
GLMRLSH,–,–,UACC62 Melanoma,–
GLRDGVE,–,–,–,A498 Renal
GLREAHV,–,–,UACC62 Melanoma,–
GLREVQD,–,–,–,HS 578 T Breast
GLRGSVW,–,COLO-205-Colon,–,–
GLRGVVK,–,HCT-116 Colon,–,–
GLRKAGF,SR Leukemia,–,–,–
GLRLGVT,–,HT-29 Colon,–,–
GLRPHGA,–,–,UACC 257 Melanoma,–
GLRRDNG,–,–,OVCAR-3 Ovarian,–
GLRTRQV,Hop-92-Lung,–,–,–
GLRVYEP,–,–,PC3 Prostate,–
GLSRGVL,–,–,–,ACHN Renal
GLVARVR,–,–,SK-MEL-28 Melanoma,–
GLVASMP,–,–,IGROV1 Ovarian,–
GLVGFTG,Hop-62-Lung,–,–,–
GLVGGSS,H460-Lung,–,–,–

Substance,Cell Line with which the peptide (and its tripeptide motif) is associated,Cell Line (NCI-60 cell line the peptide is associated with),Cell Line (NCI-60 cell line the peptide and its motif are associated with),Cell Line the peptide is associated with (peptide recovered from phage library selection on this NCI-60 cell line)
GLVGRRA,–,COLO-205-Colon,–,–
GLVGWGI,–,–,–,BT-549 Breast
GLVKLRS,–,–,–,MCF-7 Breast
GLVRCVL,–,COLO-205-Colon,–,–
GLVRGFP,SR Leukemia,–,–,–
GLVRGTA,Molt-4-Leukemia,–,–,–
GLVRRVV,–,–,–,CAIK-1 Renal
GLVSAFY,Hop-62-Lung,–,–,–
GLVSSLP,–,HCT-15 Colon,–,–
GLVSTLI,–,–,–,BT-549 Breast
GLVSVEA,A549-Lung,–,–,–
GLVTAPL,–,COLO-205-Colon,–,–
GLWAAVL,–,–,–,TK-10 Renal
GLWYRAV,–,–,SK-MEL-28 Melanoma,–
GNGGARG,–,–,M14 Melanoma,–
GNYGSVL,Hop-92-Lung,–,–,–
GPFRAVP,–,COLO-205-Colon,–,–
GPGGSKR,–,–,–,SN12C Renal
GPSFDAK,–,–,–,RXF393 Renal
GPSSAVE,–,–,OVCAR-5 Ovarian,–
GPSSMTF,–,COLO-205-Colon,–,–
GPSVLDI,–,–,OVCAR-8 Ovarian,–
GPSWATV,–,LOX-IMVI Melanoma,–,–

Substance,Cell Line with which the peptide (and its tripeptide motif) is associated,Cell Line (NCI-60 cell line the peptide is associated with),Cell Line (NCI-60 cell line the peptide and its motif are associated with),Cell Line the peptide is associated with (peptide recovered from phage library selection on this NCI-60 cell line)
GQGAASL,H522-Lung,–,–,–
GRAGGNG,–,–,M14 Melanoma,–
GRAVWMV,–,KM-12C Colon,–,–
GRDWGGL,–,–,–,T-47D Breast
GRERVSH,–,–,–,CAIK-1 Renal
GRGDRGV,–,–,SK-MEL-28 Melanoma,–
GRGGSGY,–,HT-29 Colon,–,–
GRGLRTD,–,SF-295 CNS,–,–
GRGSFES,SR Leukemia,–,–,–
GRGSGGF,–,LOX-IMVI Melanoma,–,–
GRGVGTD,–,HT-29 Colon,–,–
GRGVLAF,–,KM-12C Colon,–,–
GRGVTIW,–,HT-29 Colon,–,–
GRIRLSF,–,–,–,RXF393 Renal
GRLAAGS,–,–,–,MCF-7 Breast
GRLAKSI,–,–,UACC 257 Melanoma,–
GRLAVVA,–,HT-29 Colon,–,–
GRLDAFG,–,–,SK-MEL-5 Melanoma,–
GRLLAGG,Hop-92-Lung,–,–,–
GRLMPGG,–,–,–,ACHN Renal
GRLRASL,–,SF-295 CNS,–,–
GRLRLRV,–,SF-295 CNS,–,–
GRLRLTD,HL-60-Leukemia,–,–,–

Substance,Cell Line with which the peptide (and its tripeptide motif) is associated,Cell Line (NCI-60 cell line the peptide is associated with),Cell Line (NCI-60 cell line the peptide and its motif are associated with),Cell Line the peptide is associated with (peptide recovered from phage library selection on this NCI-60 cell line)
GRLRPFS,–,–,–,TK-10 Renal
GRLSFGV,–,–,–,ACHN Renal
GRLSRAP,–,–,OVCAR-4 Ovarian,–
GRLVWGL,–,HCT-116 Colon,–,–
GRLWGFW,H226-Lung,–,–,–
GRLWSRV,Hop-92-Lung,–,–,–
GRLWWHT,Hop-92-Lung,–,–,–
GRLWYVA,–,–,DU-145 Prostate,–
GRLYLGI,–,SF-295 CNS,–,–
GRLYYYR,RPMI-8226-Leukemia,–,–,–
GRMLVSG,–,–,OVCAR-4 Ovarian,–
GRPLGGR,–,HCT-15 Colon,–,–
GRRVSLV,SR Leukemia,–,–,–
GRSSAGP,–,–,–,MDA-MB-231 Breast
GRSSGME,–,HT-29 Colon,–,–
GRSSVSD,–,–,OVCAR-8 Ovarian,–
GRVDPVD,–,–,–,T-47D Breast
GRVGRDG,–,–,–,A498 Renal
GRVHLMP,Hop-92-Lung,–,–,–
GRVKPGA,–,–,DU-145 Prostate,–
GRVPGFE,H322-Lung,–,–,–
GRVPTVV,–,KM-12C Colon,–,–
GRVRETP,–,–,UACC62 Melanoma,–

Substance,Cell Line with which the peptide (and its tripeptide motif) is associated,Cell Line (NCI-60 cell line the peptide is associated with),Cell Line (NCI-60 cell line the peptide and its motif are associated with),Cell Line the peptide is associated with (peptide recovered from phage library selection on this NCI-60 cell line)
GRVTGGR,–,HCT-15 Colon,–,–
GRVTLES,–,–,OVCAR-3 Ovarian,–
GRVTVAV,A549-Lung,–,–,–
GRVTWRS,–,–,OVCAR-5 Ovarian,–
GRVVGEA,H322-Lung,–,–,–
GRWTGSS,–,–,–,MCF-7 Breast
GRYSLRS,RPMI-8226-Leukemia,–,–,–
GSARGML,SR Leukemia,–,–,–
GSGGANL,–,–,DU-145 Prostate,–
GSGGSVH,Hop-92-Lung,–,–,–
GSGHSFA,–,KM-12C Colon,–,–
GSGILDL,EKVX-Lung,–,–,–
GSGQLIP,–,–,M14 Melanoma,–
GSGRALA,–,–,SK-MEL-2 Melanoma,–
GSGRGVA,Hop-92-Lung,–,–,–
GSGRQLP,–,–,–,BT-549 Breast
GSGSSSR,–,–,–,TK-10 Renal
GSGSVRT,–,–,–,BT-549 Breast
GSGVRVS,–,–,SK-MEL-28 Melanoma,–
